Results taken from patent US11414384B2, “P300/CBP hat inhibitors” (Constellation Pharmaceuticals, Inc., priority 2018, dated 2022).

Tests used:
[1] = tested on: acetylation of chromatin at H3K18 (catalyzed by p300 and CBP) in HCT-116 cells; assay: H3K18Ac MSD cellular assay; format: cell-based; conditions: Homo sapiens, HCT-116, 2 h, 2 hr treatment, average of at least 2 replicate titrations
Summary of the method: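 HCT-116 cells plated overnight in RPMI + 10% FBS, treated with compound for 2 h at 37 °C, then lysed. H3K18ac measured by MSD sandwich immunoassay: total-histone capture antibody, anti-H3K18ac detection, Sulfo-Tag anti-rabbit electrochemiluminescence read.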

[2] = target: p300 HAT domain (residues 1287-1666) (Homo sapiens (Human), UniProt Q09472); assay: p300 HAT SPA assay (scintillation proximity assay, acetylation of biotinylated H3(1-21) peptide); format: biochemical; conditions: p300 HAT domain; average of at least 2 replicate titrations; read-out: P300 HAT SPA IC50
p300 HAT domain (residues 1287-1666), sequence (Q09472 1287-1666): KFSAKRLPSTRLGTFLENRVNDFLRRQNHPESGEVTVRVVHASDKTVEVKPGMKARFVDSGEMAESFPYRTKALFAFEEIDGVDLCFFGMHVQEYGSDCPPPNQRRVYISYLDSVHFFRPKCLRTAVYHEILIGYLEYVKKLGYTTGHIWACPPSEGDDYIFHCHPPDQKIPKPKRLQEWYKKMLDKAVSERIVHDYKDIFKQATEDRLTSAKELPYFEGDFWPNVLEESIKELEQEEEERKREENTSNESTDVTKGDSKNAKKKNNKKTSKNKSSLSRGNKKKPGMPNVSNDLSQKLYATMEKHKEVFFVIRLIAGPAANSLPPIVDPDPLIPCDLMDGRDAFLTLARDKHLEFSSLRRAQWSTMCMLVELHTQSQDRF
Summary of the method: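 Purified p300 HAT domain reaction transferred to streptavidin plates to capture biotinylated H3(1-21) peptide, incubated 1.5 hr at RT, and read by scintillation proximity. IC50 values derived from concentration-response data.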

[3] = target: full length p300 (Homo sapiens (Human), UniProt Q09472); assay: full length p300 SPA assay; format: biochemical; conditions: average of at least 2 replicate titrations, read-out: FL P300 IC50
full length p300, sequence (Q09472 whole entry): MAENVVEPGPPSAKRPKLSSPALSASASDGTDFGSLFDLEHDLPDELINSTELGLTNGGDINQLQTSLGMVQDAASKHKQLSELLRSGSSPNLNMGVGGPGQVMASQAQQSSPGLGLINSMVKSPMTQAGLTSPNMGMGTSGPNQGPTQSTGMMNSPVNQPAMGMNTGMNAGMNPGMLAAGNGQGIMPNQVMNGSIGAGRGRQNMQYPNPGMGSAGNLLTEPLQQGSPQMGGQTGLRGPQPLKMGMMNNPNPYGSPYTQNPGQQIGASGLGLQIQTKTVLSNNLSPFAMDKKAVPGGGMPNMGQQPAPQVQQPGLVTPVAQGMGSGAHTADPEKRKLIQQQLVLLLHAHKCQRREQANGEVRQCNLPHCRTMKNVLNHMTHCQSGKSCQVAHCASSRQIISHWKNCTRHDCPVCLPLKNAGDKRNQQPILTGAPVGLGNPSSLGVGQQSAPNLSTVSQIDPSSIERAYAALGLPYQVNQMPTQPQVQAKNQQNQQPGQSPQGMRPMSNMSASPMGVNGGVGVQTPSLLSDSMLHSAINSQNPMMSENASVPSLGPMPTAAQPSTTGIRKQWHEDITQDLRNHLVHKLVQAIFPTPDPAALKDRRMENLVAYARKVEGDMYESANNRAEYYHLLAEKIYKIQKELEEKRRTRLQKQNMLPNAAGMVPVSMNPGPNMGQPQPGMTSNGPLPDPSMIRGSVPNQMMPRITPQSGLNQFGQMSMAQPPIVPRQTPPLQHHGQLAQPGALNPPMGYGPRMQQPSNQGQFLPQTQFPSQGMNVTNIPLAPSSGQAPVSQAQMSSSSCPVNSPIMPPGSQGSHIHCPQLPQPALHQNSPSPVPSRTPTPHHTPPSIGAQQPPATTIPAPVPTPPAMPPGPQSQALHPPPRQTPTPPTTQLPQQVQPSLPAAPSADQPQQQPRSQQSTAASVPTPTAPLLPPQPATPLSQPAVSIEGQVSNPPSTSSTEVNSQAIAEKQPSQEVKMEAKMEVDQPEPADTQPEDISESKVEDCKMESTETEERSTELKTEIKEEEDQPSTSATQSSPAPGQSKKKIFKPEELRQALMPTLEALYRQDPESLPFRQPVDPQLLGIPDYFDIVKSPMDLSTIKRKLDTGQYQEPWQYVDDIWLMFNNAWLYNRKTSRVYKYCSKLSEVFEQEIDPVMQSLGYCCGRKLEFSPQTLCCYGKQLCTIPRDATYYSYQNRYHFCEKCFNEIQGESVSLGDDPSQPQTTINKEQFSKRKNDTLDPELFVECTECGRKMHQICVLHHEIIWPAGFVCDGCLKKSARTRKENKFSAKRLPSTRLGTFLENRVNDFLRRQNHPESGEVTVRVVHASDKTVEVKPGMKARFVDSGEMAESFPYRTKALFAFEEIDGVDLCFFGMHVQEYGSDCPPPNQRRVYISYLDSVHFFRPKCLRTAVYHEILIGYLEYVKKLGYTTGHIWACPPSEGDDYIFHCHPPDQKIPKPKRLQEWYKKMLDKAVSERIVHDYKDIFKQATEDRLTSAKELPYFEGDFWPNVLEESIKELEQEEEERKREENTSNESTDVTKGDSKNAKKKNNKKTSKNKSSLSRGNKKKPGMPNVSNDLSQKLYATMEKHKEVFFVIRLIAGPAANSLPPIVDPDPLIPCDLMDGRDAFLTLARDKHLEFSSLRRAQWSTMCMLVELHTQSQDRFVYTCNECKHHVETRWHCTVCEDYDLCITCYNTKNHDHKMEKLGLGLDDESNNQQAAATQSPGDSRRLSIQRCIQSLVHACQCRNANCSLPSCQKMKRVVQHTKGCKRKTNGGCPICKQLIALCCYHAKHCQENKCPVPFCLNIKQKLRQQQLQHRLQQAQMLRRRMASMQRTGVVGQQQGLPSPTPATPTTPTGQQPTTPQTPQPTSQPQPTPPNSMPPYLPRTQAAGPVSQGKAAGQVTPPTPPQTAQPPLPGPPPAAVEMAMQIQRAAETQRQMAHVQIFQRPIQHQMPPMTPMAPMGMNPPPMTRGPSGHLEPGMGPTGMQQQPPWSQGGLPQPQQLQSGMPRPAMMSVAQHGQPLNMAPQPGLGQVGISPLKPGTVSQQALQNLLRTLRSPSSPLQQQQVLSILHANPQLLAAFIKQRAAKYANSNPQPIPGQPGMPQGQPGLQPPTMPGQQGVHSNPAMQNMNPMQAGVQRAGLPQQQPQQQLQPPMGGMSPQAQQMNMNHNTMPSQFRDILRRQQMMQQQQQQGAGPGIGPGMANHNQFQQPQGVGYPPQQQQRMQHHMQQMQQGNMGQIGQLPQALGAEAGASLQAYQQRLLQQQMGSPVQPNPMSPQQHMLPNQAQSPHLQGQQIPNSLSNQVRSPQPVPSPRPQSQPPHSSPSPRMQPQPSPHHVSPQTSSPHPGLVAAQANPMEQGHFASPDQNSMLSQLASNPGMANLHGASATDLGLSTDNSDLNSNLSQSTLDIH
Description: Reactions were initiated with 12.5 μL 2 μM biotinylated H3(1-21) peptide (New England Peptide) and run for 1 hr at RT, then quenched with 20 μL stop solution (200 mM Tris pH 8.0, 200 mM EDTA, 2M NaCl, 160 μM anacardic acid). 35 μL of the reaction volume was transferred to a 384-well streptavidin FlashPlate (PerkinElmer) using a Bravo liquid handler (Velocity 11) and incubated for 1.5 hr at RT. Plates were aspirated, washed with 95 μL wash buffer (15 mM Tris pH 8.5, 0.069 μM Brij-35), aspirated, sealed, and scintillation counts read on a Topcount (PerkinElmer). Data were analyzed in Genedata to determine inhibitor IC50 values.
The full length p300 SPA assay was run following the same protocol as p300 HAT SPA assay, but used 6 nM purified full length p300 (purchased from Active Motif) in place of the purified p300-HAT domain.

Row | Compound | EC50 [1] | IC50 [2] | IC50 [3]
1 | COc1ccc(CCNC(C(=O)c2c[nH]c3c(CCC(=O)N(C)C)cccc23)c2ccccc2)cc1 (single isomer, unassigned) [29 Isomer 1] | – | 2.19 µM | 0.0911 µM
2 | NS(=O)(=O)c1ccc(CCNC(C(=O)c2c[nH]c3cnccc23)c2ccccc2)cc1 (single isomer, unassigned) [32 Isomer 2] | – | 12.9 µM | 0.744 µM
3 | Cc1nc(C(=O)C(NCCc2ccc(Cl)cc2)c2ccccc2)c2ccccn12 (single isomer, unassigned) [45 Isomer 1] | 13.4 µM | 5.55 µM | 0.219 µM
4 | O=C(c1cnc2ccccn12)C(NCCc1ccc(Cl)cc1)c1ccccc1 (single isomer, unassigned) [46 Isomer 1] | – | 9 µM | 13.1 µM
5 | O=C(c1n[nH]c2ccccc12)C(NCCc1ccc(Cl)cc1)c1ccccc1 (single isomer, unassigned) [47 Isomer 1] | – | 4.8 µM | 1.31 µM
6 | CN(C)C(=O)CCc1ccc2c(C(=O)C(NCCc3ccc(F)cc3)c3ccccc3)c[nH]c2c1 (single isomer, unassigned) [49 Isomer 2] | 0.754 µM | 2.21 µM | 0.0553 µM
7 | CNC(=O)Cc1ccc2c(C(=O)C(NCCc3ccc(C#N)cc3)c3ccccc3)c[nH]c2c1 (single isomer, unassigned) [62 Isomer 1] | – | 0.501 µM | 0.0372 µM
8 | CN(C)C(=O)Cc1ccc2c(C(=O)C(NCCc3ccc(C#N)cc3)c3ccccc3)c[nH]c2c1 (single isomer, unassigned) [63 Isomer 1] | 0.337 µM | 0.382 µM | 0.00878 µM
9 | COc1ccc(CCN[C@H](C(=O)c2c[nH]c3c(C(C)C)cccc23)c2ccccc2)cc1 (single isomer, unassigned) [145 Isomer 1] | – | 18.5 µM | 0.593 µM
10 | CNC(=O)c1cccc2c(C(=O)C(NCCc3ccc(Cl)cc3Cl)c3ccccc3)c[nH]c12 (single isomer, unassigned) [147 Isomer 2] | – | 4.91 µM | 0.336 µM
11 | CN(C)C(=O)c1cccc2c(C(=O)C(NCCc3ccc(Cl)cc3Cl)c3ccccc3)c[nH]c12 (single isomer, unassigned) [148 Isomer 2] | – | 8.05 µM | 0.355 µM
12 | CN(C)CCNC(=O)c1ccc2c(C(=O)C(NCCc3ccc(Cl)cc3Cl)c3ccccc3)c[nH]c2c1 (single isomer, unassigned) [153 Isomer 1] | – | 0.345 µM | 0.00784 µM
13 | COCCNC(=O)c1ccc2c(C(=O)C(NCCc3ccc(Cl)cc3Cl)c3ccccc3)c[nH]c2c1 (single isomer, unassigned) [154 Isomer 2] | – | 1.62 µM | 0.00895 µM
14 | N#Cc1ccc(CCNC(C(=O)c2c[nH]c3cc(C(=O)O)ccc23)c2ccccc2)cc1 (single isomer, unassigned) [155 Isomer 2] | – | 4.09 µM | 0.285 µM
15 | CNC(=O)c1ccc2c(C(=O)C(NCCc3ccc(C#N)cc3)c3ccccc3)c[nH]c2c1 (single isomer, unassigned) [156 Isomer 1] | – | 0.584 µM | 0.0291 µM
16 | O=C(O)CCc1ccc2c(C(=O)C(NCCc3ccc(F)cc3)c3ccccc3)c[nH]c2c1 (single isomer, unassigned) [159 Isomer 2] | – | 5.9 µM | 0.274 µM
17 | N#Cc1ccc(CCNC(C(=O)c2c[nH]c3cc(C(=O)NCCN4CCCC4=O)ccc23)c2ccccc2)cc1 (single isomer, unassigned) [164 Isomer 1] | – | 3.66 µM | 0.19 µM

The remaining lines, values ahead:

Row | EC50 [1] | IC50 [2] | IC50 [3] | Compound
18 | 3.9 µM | 4.21 µM | 0.145 µM | O=C(c1c[nH]c2ccccc12)C(NCCc1ccc(Cl)cc1)c1cccnc1 (racemic) [43 Racemic, (rac)-2-((4-chlorophenethyl)amino)-1-(1H-indol-3-yl)-2-(pyridin-3-yl)ethan-1-one]
19 | 0.405 µM | 1.49 µM | 0.0812 µM | NS(=O)(=O)c1ccc(CCNC(C(=O)c2c[nH]c3c(Cl)cccc23)c2ccccc2)cc1 (single isomer, unassigned) [15 Isomer 2]
20 | 0.0913 µM | 0.715 µM | 0.1 µM | O=C(c1c[nH]c2ccccc12)C(NCCc1ccc(C(F)(F)F)cc1)c1ccccc1 (single isomer, unassigned) [21 Isomer 1]
21 | 1.69 µM | 2.32 µM | 0.0208 µM | O=C(c1c[nH]c2ccccc12)C(NCCc1ccc(F)cc1)c1ccccc1 (single isomer, unassigned) [22 Isomer 2]
22 | – | 6.6 µM | 0.22 µM | COc1ccc(CCNC(C(=O)c2c[nH]c3c(CCC(=O)N(C)C)cccc23)c2ccccc2)cc1 (single isomer, unassigned) [29 Isomer 2]
23 | 3.67 µM | 1.45 µM | 0.102 µM | NS(=O)(=O)c1ccc(CCNC(C(=O)c2c[nH]c3cnccc23)c2ccccc2)cc1 (single isomer, unassigned) [32 Isomer 1]
24 | – | > 60 µM | 1.75 µM | NS(=O)(=O)c1ccc(CCNC(C(=O)c2c[nH]c3ncccc23)c2ccccc2)cc1 (single isomer, unassigned) [33 Isomer 1]
25 | – | 10 µM | 0.554 µM | NS(=O)(=O)c1ccc(CCNC(C(=O)c2c[nH]c3ncccc23)c2ccccc2)cc1 (single isomer, unassigned) [33 Isomer 2]
26 | 0.529 µM | 0.77 µM | 0.0275 µM | CN(C)c1ccc(CCNC(C(=O)c2c[nH]c3ccccc23)c2ccccc2)cc1 (single isomer, unassigned) [39 Isomer 2]
27 | – | 39.8 µM | 1.35 µM | Cc1nc(C(=O)C(NCCc2ccc(Cl)cc2)c2ccccc2)c2ccccn12 (single isomer, unassigned) [45 Isomer 2]
28 | 29.4 µM | 6.55 µM | 0.283 µM | O=C(c1cnc2ccccn12)C(NCCc1ccc(Cl)cc1)c1ccccc1 (single isomer, unassigned) [46 Isomer 2]
29 | – | 20.3 µM | 1.3 µM | O=C(c1n[nH]c2ccccc12)C(NCCc1ccc(Cl)cc1)c1ccccc1 (single isomer, unassigned) [47 Isomer 2]
30 | 0.324 µM | 1.29 µM | 0.0255 µM | COc1ccc2c(C(=O)C(NCCc3ccc(S(N)(=O)=O)cc3)c3ccccc3)c[nH]c2c1 (single isomer, unassigned) [51 Isomer 2]
31 | 0.546 µM | 1.09 µM | 0.178 µM | COc1ccc2c(C(=O)C(NCCc3ccc(Cl)cc3)c3ccccc3)c[nH]c2c1 (single isomer, unassigned) [60 Isomer 2]
32 | 0.825 µM | 1.07 µM | 0.0497 µM | O=C(c1c[nH]c2cc(OCc3ccccc3)ccc12)C(NCCc1ccc(F)cc1)c1ccccc1 (single isomer, unassigned) [61 Isomer 2]
33 | – | 3.34 µM | 0.0513 µM | CNC(=O)Cc1ccc2c(C(=O)C(NCCc3ccc(C#N)cc3)c3ccccc3)c[nH]c2c1 (single isomer, unassigned) [62 Isomer 2]
34 | – | 2.5 µM | 0.0462 µM | CN(C)C(=O)Cc1ccc2c(C(=O)C(NCCc3ccc(C#N)cc3)c3ccccc3)c[nH]c2c1 (single isomer, unassigned) [63 Isomer 2]
35 | – | 1.38 µM | 0.0251 µM | O=C(c1c[nH]c2cc(-c3ccccn3)ccc12)C(NCCc1ccc(F)cc1)c1ccccc1 (single isomer, unassigned) [105 Isomer 2]
36 | – | 28.8 µM | 0.819 µM | CN(C)C(=O)c1ccc(CCNC(C(=O)c2c[nH]c3ccccc23)c2ccccc2)cc1 (single isomer, unassigned) [135 Isomer 2]
37 | – | 0.442 µM | 0.03 µM | Cn1cc(-c2ccc3c(C(=O)C(NCCc4ccc(C(=O)O)cc4)c4ccccc4)c[nH]c3c2)cn1 (single isomer, unassigned) [138 Isomer 1]
38 | – | 5.92 µM | 0.223 µM | CN(C)CCNC(=O)c1cccc2c(C(=O)C(NCCc3ccc(Cl)cc3Cl)c3ccccc3)c[nH]c12 (single isomer, unassigned) [149 Isomer 1]
39 | – | 7.97 µM | 0.393 µM | COCCNC(=O)c1cccc2c(C(=O)C(NCCc3ccc(Cl)cc3Cl)c3ccccc3)c[nH]c12 (single isomer, unassigned) [150 Isomer 1]
40 | – | 0.0798 µM | 0.00572 µM | CN(C)CCNC(=O)c1ccc2c(C(=O)C(NCCc3ccc(Cl)cc3Cl)c3ccccc3)c[nH]c2c1 (single isomer, unassigned) [153 Isomer 2]
41 | – | 0.325 µM | 0.0377 µM | COCCNC(=O)c1ccc2c(C(=O)C(NCCc3ccc(Cl)cc3Cl)c3ccccc3)c[nH]c2c1 (single isomer, unassigned) [154 Isomer 1]
42 | – | 0.14 µM | 0.00603 µM | N#Cc1ccc(CCNC(C(=O)c2c[nH]c3cc(C(=O)NCCN4CCCC4=O)ccc23)c2ccccc2)cc1 (single isomer, unassigned) [164 Isomer 2]
